From patent publication US20250059196A1 (SHANGHAI HANSOH BIOMEDICAL CO., LTD., priority 2021, published 2025)

Key:
[1] = molecular target: MALT1 protease activity in TMD8 cells (substrate BCL-10) (Homo sapiens (Human), UniProt Q9UDY8); test: Intracellular MALT1 protease activity detection (BCL-10 ELISA in TMD8 cells); type: cell-based; details: undigested BCL-10 by ELISA, 30 min compound then 2 h stimulation cocktail, read-out: Bcl10 TMD8 IC50
Method: By detecting the digestion level of the substrate BCL-10 by MALT1 in TMD8 cells, the inhibitory effect of the compound on MALT1 protease activity in the cellular environment was tested.
The ELISA sandwich method was used to detect the content of undigested BCL-10 protein in cells and determine the inhibitory effect of compounds on intracellular MALT1 protease activity. The highest concentration of the compound detected was 10000 nM, 3-fold dilution, a total of 9 concentrations (10000 nM-1.5 nM). Cells were plated at an appropriate density. Compounds of corresponding concentrations were first added for action for 30 min, and then eBioscience cell stimulation cocktail was added to stimulate the cells for 2 h. Cell lysate was then collected. The cell lysate was added to the assay plate previously coated with recombinant BCL-10 antibody (Abcam, #Ab33905) and incubated at 4° C. overnight. The next day, BCL-10 detection antibody (Santacruz, #Sc-5273HRP) was added and incubated for 2 h, TMB substrate was used for color development for about 30 min, then the color development was terminated, and a microplate reader was used for detection.
2) Curve fitting: Log(inhibitor) vs. response—Variable slope (four parameters) in GraphPad Prism 6 was used to perform fitting equation analysis on compound concentration and corresponding inhibition rate, the curve was fit and compound IC50 value was obtained.
The fitting calculation equation is Y=Bottom+(Top−Bottom)/(1+10^((Log IC50−X)*HillSlope))

[2] = Pharmacokinetics of oral administration in Balb/C mice; type: in vivo; details: male, mouse, po, 30 mg/kg, P.O., plasma; for AUC(0-t): read-out: AUC 0-t; for Cmax: read-out: Cmax; for Tmax: read-out: Tmax; for MRT: read-out: MRT
Method: Balb/C mice were used as test animals to study the pharmacokinetic behavior of the compound in the plasma of mice after oral administration at a dose of 30 mg/kg.
3 Balb/C mice (3/example), male, from Shanghai Jiesijie Experimental Animal Co., Ltd., animal production license number (SCXK (Shanghai) 2013-0006 N0.311620400001794).
3 Balb/C mice, male; p.o. respectively at a dose of 30 mg/kg and an administration volume of 10 mL/kg after the mice were fasted overnight.
Before and after administration of mice, 0.1 mL of blood was collected from the orbit at 0, 0.5, 1, 2, 4, 6, 8 and 24 h, and placed in EDTA-K2 test tubes, which was centrifuged at 6000 rpm at 4° C. for 6 min to separate plasma which was stored at −80° C.
• 1) 160 μL of acetonitrile was added to 40 μL of plasma sample for precipitation, and same was mixed and centrifuged at 3500×g for 5 to 20 min. • 2) 100 μL of the treated supernatant solution was taken and subjected to LC/MS/MS to analyze the concentrations of the test compounds.
• Liquid phase conditions: Shimadzu LC-20AD pump • Mass spectrometry conditions: AB Sciex API 4000 mass spectrometer • Chromatographic column: Phenomenex Gemiu 5 um C18 50×4.6 mm • Mobile phase: liquid A is 0.1% aqueous formic acid solution, liquid B is acetonitrile • flow rate: 0.8 mL/min • Elution time: 0-4.0 min, the eluent is as follows:
The main pharmacokinetic parameters were calculated using WinNonlin 8.2.

[3] = test system: OCI-LY3 cell subcutaneous xenograft tumor; test: Tumor inhibition in OCI-LY3 subcutaneous xenograft NOG mouse model of human diffuse large B-cell lymphoma; type: in vivo; details: NOG mice, 30 mg, BID × 4 weeks, oral; for Weight Day 28: in g (unit assumed); for Tumor volume (Mean ± SD) Day 28: vehicle group 1274 ± 82
Method: The efficacy of test drugs was evaluated in OCI-LY3 mouse subcutaneous tumor model of human diffuse large B-cell lymphoma
• 1. Animal: NOG mice, female, 6-8 weeks old, weighing 18-22 grams, a total of 65 mice were needed. Provided by Beijing Vital River Laboratory Animal Technology Co., Ltd. or other qualified suppliers. • 2. Cell: Human diffuse large B-cell lymphoma OCI-LY3 cells were cultured in vitro as monolayers and conventional digestion treatment with trypsin-EDTA was carried out twice a week for passage. When the cell confluence was 80%-90% and the number reached the required number, cells were collected, counted, and inoculated. • 3. Grouping for vaccination: Cells (5×10^6 cells+Matrigel/0.2 ml) were inoculated subcutaneously into each mouse. The growth of animals and transplanted tumors were observed regularly. When the tumor grew to a volume of about 150-200 mm^3, the tumor volume of each mouse was calculated, and the mice were divided into random groups according to tumor volume and body weight. The calculation formula of tumor volume was V=0.5a×b^2, wherein a and b represented the long and short diameters of the tumor, respectively. • 4. Administration: According to the grouping results, the test drug was started to be administered (administration method: oral administration; Administration volume: 10 mL/kg; Administration frequency: 2 times/day; Administration cycle: 28 days; Vehicle: 10% solutol HS15-0.25% CMC-Na). Tumors were measured and weighed twice a week after starting administration of test drugs. • 5. Animals were euthanized after the experiment. • 6. Data processing: The tumor inhibitory efficacy of the compound was evaluated by TGI (%) or relative tumor proliferation rate T/C (%). TGI (%) reflects the tumor growth inhibition rate. Calculation of TGI (%): TGI (%)=[(1−(average tumor volume at the end of administration in a treatment group−average tumor volume at the beginning of administration in the treatment group))/(average tumor volume at the end of administration in the solvent control group−average tumor volume at the beginning of administration in the solvent control group)]×100%.
Relative tumor proliferation rate T/C (%): The calculation formulas are as follows: T/C %=TRTV/CRTV×100% (TRTV: RTV of treatment group; CRTV: RTV of negative control group). The relative tumor volume (RTV) was calculated based on the results of tumor measurement. The calculation formula is RTV=Vt/V0, where V0 is the average tumor volume measured at grouping for administration (i.e. d0), Vt is the average tumor volume at a certain measurement, and TRTV and CRTV take the data on the same day.
After the experiment, the tumor weight was measured, and the T/Cweight percentage was calculated. Tweight and Cweight represented the tumor weight of the administration group and the vehicle control group, respectively.
Remarks: The data in parentheses indicate the tumor volume corresponding to the vehicle group (i.e., the control group) at the corresponding time in this example.

Sequence of MALT1 protease activity in TMD8 cells (substrate BCL-10) (Q9UDY8 whole entry): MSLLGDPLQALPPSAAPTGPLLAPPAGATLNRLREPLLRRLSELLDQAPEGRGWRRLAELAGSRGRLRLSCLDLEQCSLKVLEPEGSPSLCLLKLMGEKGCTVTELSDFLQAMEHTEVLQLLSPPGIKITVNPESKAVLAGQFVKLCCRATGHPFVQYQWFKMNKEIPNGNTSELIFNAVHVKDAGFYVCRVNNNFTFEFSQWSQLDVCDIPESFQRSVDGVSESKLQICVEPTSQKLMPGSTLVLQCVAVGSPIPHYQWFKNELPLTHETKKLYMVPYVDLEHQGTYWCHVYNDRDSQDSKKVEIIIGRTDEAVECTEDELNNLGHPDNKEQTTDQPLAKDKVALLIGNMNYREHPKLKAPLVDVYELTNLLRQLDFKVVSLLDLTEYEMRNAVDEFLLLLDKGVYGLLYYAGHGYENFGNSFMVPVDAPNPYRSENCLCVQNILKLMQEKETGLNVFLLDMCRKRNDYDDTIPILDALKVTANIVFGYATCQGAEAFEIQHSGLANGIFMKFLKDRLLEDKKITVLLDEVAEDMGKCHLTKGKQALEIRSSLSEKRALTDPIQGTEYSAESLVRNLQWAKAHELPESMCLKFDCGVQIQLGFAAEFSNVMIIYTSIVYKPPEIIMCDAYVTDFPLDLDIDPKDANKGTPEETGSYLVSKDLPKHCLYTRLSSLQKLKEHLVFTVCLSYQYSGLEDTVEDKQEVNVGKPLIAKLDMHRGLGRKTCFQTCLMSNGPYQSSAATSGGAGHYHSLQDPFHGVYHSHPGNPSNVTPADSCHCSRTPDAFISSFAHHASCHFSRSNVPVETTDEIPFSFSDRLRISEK

Row | IC50 [1] | AUC(0-t) [2] | Cmax [2] | Tmax [2] | Weight Day 28 [3] | AUC(0-inf) [2] | half-life [2] | MRT [2] | SMILES | TGI (%) Day 28 [3] | ΔT/ΔC(%) Day 28 [3] | Tumor volume (Mean ± SD) Day 28 [3]
1 | 56 nM | 256 µg·h/mL | 14100 ng/mL | 8 h | 20.06 ± 1.08 | – | – | – | O=C(Nc1ccc(-n2nccn2)c(Cl)c1)c1cnn(-c2ccc3c4c(cccc24)C(=O)N3)c1C(F)(F)F [Example 53, N-(3-chloro-4-(2H-1,2,3-triazol-2-yl)phenyl)-1-(2-oxo-1,2-dihydrobenzo[cd]indol-6-yl)-5-(trifluoromethyl)-1H-pyrazole-4-carboxamide] | 67.23% | 41.76% | 519 ± 89 (1274 ± 82) mm^3
2 | 61 nM | 222 µg·h/mL | 22900 ng/mL | 2 h | 21.03 ± 0.42 | 222 µg·h/mL | 1.9 h | 5.4 h | O=C(Nc1cnc(-n2nccn2)c(C(F)(F)F)c1)c1cnn(-c2ccc3c4c(cccc24)C(=O)N3)c1C(F)(F)F [Example 18, N-(6-(2H-1,2,3-triazol-2-yl)-5-trifluoromethylpyridin-3-yl)-1-(2-oxo-1,2-dihydrobenzo[cd]indol-6-yl)-5-trifluoromethyl-1H-pyrazole-4-carboxamide] | 62.73% | 43.82% | 635 ± 46 (1274 ± 82) mm^3
3 | 50 nM | 401 µg·h/mL | 28300 ng/mL | 4 h | 21.15 ± 0.72 | 472 µg·h/mL | 8.6 h | 12.2 h | O=C(Nc1ccnc(C(F)(F)F)c1)c1cnn(-c2ccc3c4c(cccc24)C(=O)N3)c1C1CC1 [Example 55, 5-cyclopropyl-1-(2-oxo-1,2-dihydrobenzo[cd]indol-6-yl)-N-(2-(trifluoromethyl)pyridin-4-yl)-1H-pyrazole-4-carboxamide] | 87.99% | 22.76% | 287 ± 25 (1274 ± 82) mm^3
